Drawing on PubChem BioAssay (NCI), this text covers GI50 and TGI for 8 compounds.

“And” between values parts separate entries of the source, which are not always exact repeats. Identical values can stand only once.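 Method: 48-hour compound exposure of cells in 96-well plates, five concentrations, linear interpolation of endpoints. GI50 marks 50% less growth. At the TGI there is no net growth.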

Some test systems named below: UACC-257 melanoma; HOP-62 NSCLC; SK-OV-3 ovarian; TK-10 renal; HL-60(TB) leukemia; CCRF-CEM leukemia; M14 melanoma; SF-268 CNS; A549 NSCLC; KM12 colon.
Test in all cases: NCI-60 cell line screen, 48 h

Turning to `NC(=O)c1nc(-c2c(F)cccc2Cl)oc1Nc1ccc(C(=O)N2CCOCC2)cc1`, the GI50 in the assay on UACC-257 melanoma is 11900 nM; with HOP-62 NSCLC, 2080 nM; in the assay on SK-OV-3 ovarian, 2580 nM; in the assay on TK-10 renal, 2330 nM; in the assay on HL-60(TB) leukemia, 478 nM; with CCRF-CEM leukemia it was 400 nM. Also, the GI50 in the assay on M14 melanoma is 13700 nM; in the assay with SF-268 CNS, 3070 nM; in the assay on A549 NSCLC it was 936 nM; in the assay on KM12 colon, 326 nM. Also, the TGI in the assay on UACC-257 melanoma was 41100 nM; in the assay on HOP-62 NSCLC, > 100000 nM; in the assay with SK-OV-3 ovarian, 75200 nM; in the assay with TK-10 renal, 34200 nM; in the assay on HL-60(TB) leukemia, 31700 nM; in the assay with CCRF-CEM leukemia, > 100000 nM. Also, the TGI in the assay on M14 melanoma, with SF-268 CNS, with A549 NSCLC and in the assay on KM12 colon was > 100000 nM throughout.
Regarding `S=C(Sc1ccc(Cl)cc1)Sc1ccc(Cl)cc1`, the GI50 in the assay with UACC-257 melanoma was 5040 nM; with HOP-62 NSCLC, 3390 nM; in the assay with SK-OV-3 ovarian, 6050 nM; in the assay on TK-10 renal, 2530 nM; with HL-60(TB) leukemia it was 1930 nM; in the assay with CCRF-CEM leukemia, 409 nM. The GI50 with M14 melanoma is 2030 nM; in the assay on SF-268 CNS it was 2100 nM; in the assay on A549 NSCLC, 2990 nM; in the assay on KM12 colon, 2740 nM. Also, the TGI stood at 16600 nM in the assay with UACC-257 melanoma; 7580 nM in the assay on HOP-62 NSCLC; 31800 nM with SK-OV-3 ovarian; 5270 nM in the assay with TK-10 renal; 8620 nM in the assay on HL-60(TB) leukemia; 2560 nM in the assay with CCRF-CEM leukemia. In addition, the TGI with M14 melanoma came out at 3950 nM; in the assay on SF-268 CNS it was 6600 nM; in the assay on A549 NSCLC it was 13700 nM; with KM12 colon, 8640 nM.
Take `CCc1ccc(Oc2c(-c3ccc(OCc4ccc(Cl)cc4)cc3O)nn(C)c2C(F)(F)F)cc1`: the GI50 is 1180 nM in the assay with UACC-257 melanoma; 1340 nM in the assay on HOP-62 NSCLC; 1630 nM in the assay with SK-OV-3 ovarian; 1230 nM in the assay on TK-10 renal; 1420 nM in the assay on HL-60(TB) leukemia; 454 nM in the assay on CCRF-CEM leukemia. The GI50 with M14 melanoma is 1170 nM; in the assay on SF-268 CNS, 1250 nM; with A549 NSCLC, 514 nM; with KM12 colon it was 389 nM. Also, the TGI was determined as 3530 nM in the assay on UACC-257 melanoma; 2830 nM with HOP-62 NSCLC; 4980 nM in the assay on SK-OV-3 ovarian; 3180 nM in the assay on TK-10 renal; 3620 nM in the assay with HL-60(TB) leukemia; 4820 nM with CCRF-CEM leukemia. Further, the TGI in the assay with M14 melanoma was determined as 2680 nM; in the assay on SF-268 CNS, 2900 nM; with A549 NSCLC it was 1950 nM; in the assay with KM12 colon, 1610 nM.
On to `CCN(CC)CCNc1n[n+]([O-])c2cc([N+](=O)[O-])ccc2[n+]1[O-]`, for which the GI50 is 1690 nM and 825 nM and 1070 nM in the assay with UACC-257 melanoma; 2800 nM and 1420 nM and 1210 nM with TK-10 renal; 140 nM and 69.1 nM and 17.3 nM in the assay with HL-60(TB) leukemia; 263 nM and 111 nM and 138 nM in the assay on CCRF-CEM leukemia. Moreover, the TGI in the assay with UACC-257 melanoma is 4140 nM and 3080 nM and 2430 nM; in the assay on HOP-62 NSCLC it was 2200 nM and 1200 nM and 1540 nM; in the assay with SK-OV-3 ovarian, 4330 nM and 3790 nM and 3860 nM; in the assay with TK-10 renal it was 14700 nM and 8940 nM and 5880 nM; in the assay on HL-60(TB) leukemia, 381 nM and 278 nM and 88.2 nM; in the assay with CCRF-CEM leukemia it was 1100 nM and 841 nM and 999 nM. For the same compound, the TGI in the assay with M14 melanoma is 2170 nM and 2630 nM and 2020 nM; with SF-268 CNS it was 8560 nM and 4920 nM and 5230 nM; in the assay with A549 NSCLC, 3110 nM and 3080 nM and 2480 nM; in the assay with KM12 colon it was 2720 nM and 2990 nM and 2410 nM.
For `CNC(=O)OCc1nc(SSc2nc(COC(=O)NC)c(COC(=O)NC)n2C)n(C)c1COC(=O)NC`, the TGI with UACC-257 melanoma, in the assay with HOP-62 NSCLC, with SK-OV-3 ovarian, in the assay with TK-10 renal, in the assay on HL-60(TB) leukemia and in the assay with CCRF-CEM leukemia was > 100000 nM each time. For the same compound, the TGI with M14 melanoma, in the assay on SF-268 CNS, in the assay on A549 NSCLC and in the assay on KM12 colon was > 100000 nM each time.
With `CCOC(=O)c1cc(C(=O)c2ccc(OC)c(OC)c2)n2c1ccc1ccc3cccnc3c12`, the GI50 is 25000 nM with UACC-257 melanoma; 3780 nM in the assay with HOP-62 NSCLC; 4020 nM with SK-OV-3 ovarian; 7200 nM in the assay on TK-10 renal; 2780 nM in the assay on HL-60(TB) leukemia; 3130 nM in the assay on CCRF-CEM leukemia. The GI50 in the assay with M14 melanoma is 648 nM; with SF-268 CNS, 4620 nM; in the assay with A549 NSCLC, 5460 nM; in the assay with KM12 colon, 1300 nM. Further, the TGI was > 100000 nM in the assay with UACC-257 melanoma; 81600 nM in the assay on HOP-62 NSCLC; > 100000 nM in the assay on SK-OV-3 ovarian; > 100000 nM with TK-10 renal; > 100000 nM in the assay with HL-60(TB) leukemia; > 100000 nM in the assay with CCRF-CEM leukemia. Besides, the TGI with M14 melanoma was > 100000 nM; in the assay with SF-268 CNS, > 100000 nM; in the assay on A549 NSCLC, > 100000 nM; in the assay on KM12 colon, 80700 nM.
In the case of `C[C@]12CCc3nc(Nc4ccc(O)cc4)sc3C1=CC[C@@H]1[C@@H]2CC[C@]2(C)/C(=N/NC(N)=S)CC[C@@H]12`, the GI50 is 2040 nM in the assay with UACC-257 melanoma; 1700 nM with HOP-62 NSCLC; 1620 nM with SK-OV-3 ovarian; 2130 nM with TK-10 renal; 1880 nM with HL-60(TB) leukemia; 629 nM in the assay with CCRF-CEM leukemia. Moreover, the GI50 in the assay on M14 melanoma was 1180 nM; in the assay with SF-268 CNS it was 1340 nM; in the assay with A549 NSCLC, 498 nM; in the assay with KM12 colon, 1260 nM. For the same compound, the TGI in the assay with UACC-257 melanoma was 5610 nM; in the assay with HOP-62 NSCLC it was 4210 nM; in the assay on SK-OV-3 ovarian, 3250 nM; in the assay with TK-10 renal, 4350 nM; in the assay with HL-60(TB) leukemia it was 5070 nM; with CCRF-CEM leukemia it was > 100000 nM. The TGI came to 2900 nM in the assay on M14 melanoma, 3980 nM with SF-268 CNS, 1860 nM with A549 NSCLC and 2740 nM in the assay with KM12 colon.
As to `CO[C@H]1C(=O)[C@]2(C)[C@@H](OC)C[C@H]3OC[C@@]3(OC(C)=O)[C@H]2[C@H](OC(=O)c2ccccc2)[C@]2(O)C[C@H](OC(=O)[C@H](O)[C@@H](NC(=O)OC(C)(C)C)c3ccccc3)C(C)=C1C2(C)C`, the TGI in the assay with UACC-257 melanoma was > 63000 nM; in the assay with HOP-62 NSCLC, > 80400 nM; with SK-OV-3 ovarian it was 35200 nM; with TK-10 renal, 31300 nM; with HL-60(TB) leukemia, < 10 nM; in the assay with CCRF-CEM leukemia, 42300 nM. For the same compound, the TGI with M14 melanoma is 17800 nM; with SF-268 CNS, 68600 nM; in the assay on A549 NSCLC, > 64900 nM; in the assay with KM12 colon, 22400 nM. The GI50 in the assay on HOP-62 NSCLC, in the assay with SK-OV-3 ovarian, in the assay on TK-10 renal, in the assay with HL-60(TB) leukemia, in the assay with CCRF-CEM leukemia and with M14 melanoma was < 10 nM in each case. The GI50 with SF-268 CNS, in the assay with A549 NSCLC and in the assay on KM12 colon was < 10 nM throughout.
